Results: patent US20180147171A1, “TRANS10:CIS12 ISOMER OF CONJUGATED LINOLEIC ACID AS A THERAPEUTIC AND PREVENTATIVE AGENT FOR HYPERTENSION SPECIFIC TO PREGNANCY” (Wisconsin Alumni Research Foundation, priority 2012, published 2018)

Tests used:
[1] = test system: CX43; assay: Phosphorylation of CX43 at specific inhibitory sites in VEGF-treated uterine artery endothelial cells; type: cell-based, sheep; settings: cultured uterine artery endothelial cells from pregnant animals, VEGF inhibited, with rescue agent
[2] = test system: ovine uterine artery endothelial cells from pregnant sheep (P-UAEC); assay: Fura-2 [Ca2+]i imaging: ATP stimulated Ca2+ burst number after VEGF pretreatment, with or without rescue agent; type: cell-based; settings: for rescue from VEGF165 mediated inhibition of subsequent ATP stimulated Ca2+ bursts: rescue agent 10 uM added right before VEGF165 10 ng/ml, second ATP 100 uM response as % of first; for rescue from VEGF165 mediated inhibition of subsequent ATP stimulated Ca2+ bursts / CLA rescue of VEGF inhibitory effects on subsequent ATP burst number: 30 min; for CLA rescue of VEGF inhibitory effects on subsequent ATP burst number: t10:c12 CLA 50 uM added before VEGF165 10 ng/ml, compared with PP2 10 uM
Source text: Studies in ovine uterine artery endothelial cells from pregnant sheep (P-UAEC). P-UAEC are a well-established cell model of endothelial cells isolated from uterine arteries and maintained in culture to passage 3 before freezing for future use.
Isolation of UAECs: Uterine arteries were obtained from Polypay and mixed Western breed nonpregnant sheep (n=4) and pregnant ewes (n=6) at 120-130 days of gestation during nonsurvival surgery, as described in the art. Procedures for animal handling and protocols for experimental procedures were approved by the University of Wisconsin-Madison Research Animal Care Committees of both the School of Medicine and Public Health and the College of Agriculture and Life Sciences and follow the recommended American Veterinary Medicine Association guidelines for humane treatment and euthanasia of laboratory farm animals.
Fura-2 [Ca^2+]i Imaging Studies: Uterine artery endothelial cells plated to 35-mm dishes with glass coverslip windows (MatTek Corp.) were grown to the required density (20%-100%, as described) and then loaded with 5 μM Fura-2 AM in Krebs buffer (125 mM NaCl, 5 mM KCl, 1 mM MgSO4, 1 mM KH2PO4, 6 mM glucose, 2 mM CaCl2, and 25 mM HEPES, pH 7.4) for 45 min. After rinsing and incubating a further 30 min to complete ester hydrolysis, Fura-2 loading was verified by viewing at 380-nm ultraviolet excitation on a Nikon inverted microscope (TS100; Melville, N.Y.). About 60 cells were then preselected and video recordings commenced using alternate excitation at 340 and 380 nm at 1-sec intervals and measuring emitted light using a digital camera. From the ratio of emission at 510 nm detected at the two excitation wavelengths, and by comparison to a standard curve established for the same settings using buffers of known free Ca^2+ concentration, the [Ca^2+]i was then calculated for individual cells in real time using InCyt Im2 software (Intracellular Imaging Inc., Cincinnati, Ohio).
Data in graphs is calculated comparing the cells repeated burst patterns before and after repeat treatment. ATP 100 μM 30 min followed by ATP 100 uM 30 min gives a marginal decline in number of Ca^2+ bursts (as defined in the art). However other agents activating protein kinases such as ERK and Src cause closure of CX43 and so loss of associated bursts. Therefore to perform the analysis, ATP stimulation is performed once to establish an uninhibited response for each cell. Then the inhibitory treatment under study is given (VEGF, 10 ng/ml or equivalent). After 30 minutes the second ATP treatment begins and burst response is expressed as % of the first ATP response. To then further test the protective or rescue effect of kinase inhibitors we follow the same protocol but add the rescue agent right before the VEGF. U0126 is an MEK/ERK pathway blocked, PP2 is a Src pathway blocker, and CLA is the test compound.

[3] = test system: ERK and Src signaling; settings: cancer cells; earlier finding; cited from earlier work

## CC(C)(C)n1nc(-c2ccc(Cl)cc2)c2c(N)ncnc21 [PP2]
[1]
  phosphorylation of CX43 at specific inhibitory sites: reversal of the phosphorylation of CX43
[2]; FIG. 3
  rescue from VEGF165 mediated inhibition of subsequent ATP stimulated Ca2+ bursts: can rescue the cells

## N#CC(=C(/N)Sc1ccccc1N)/C(C#N)=C(\N)Sc1ccccc1N [U0126]
[1]
  phosphorylation of CX43 at specific inhibitory sites: reversal of the phosphorylation of CX43
[2]; FIG. 3
  rescue from VEGF165 mediated inhibition of subsequent ATP stimulated Ca2+ bursts: can rescue the cells

## CCCCCC/C=C/C=C\CCCCCCCC(=O)O [c9:t11 CLA]
[2]; FIG. 4
  CLA rescue of VEGF inhibitory effects on subsequent ATP burst number: have not achieved rescue

## CCCCC/C=C\C=C\CCCCCCCCC(=O)O [t10:c12 CLA, t10:c12 conjugated linoleic acid]
[3]
  inhibition of ERK and Src kinase signaling pathways: can inhibit these pathways
[2]; FIG. 4
  CLA rescue of VEGF inhibitory effects on subsequent ATP burst number: can achieve the same rescue effect as PP2
[2]; FIG. 4, listed as CLA
  CLA rescue of VEGF inhibitory effects on subsequent ATP burst number: improvement of function beyond rescue

## VEGF
[2]; 30 min pretreatment, 10 ng/ml, FIG. 3
  effect of factor pretreatment on subsequent ATP stimulated Ca2+ bursts: inhibitory effects
